According to ChEMBL document CHEMBL1152765, “Discovery of new inhibitors of the bacterial peptidoglycan biosynthesis enzymes MurD and MurF by structure-based virtual screening” (Bioorg Med Chem, 2009):
≈ marks a conversion by molar mass, not a printed value. Calls of active or inactive are those of the source. The rule behind the calls is not given here.

Columns and labels:
[1] = Inhibition of Escherichia coli MurF
Escherichia coli [2] = assay: Inhibition of Escherichia coli MurF assessed as residual activity at 250 uM by malachite green assay
Staphylococcus aureus = assay: Antibacterial activity against Staphylococcus aureus 8325-4 after 18 hrs by broth microdilution method; format: functional
Escherichia coli [3] = assay: Antibacterial activity against AcrAB deficient Escherichia coli SM1411 after 18 hrs by broth microdilution method; format: functional, organism-based
Escherichia coli [4] = assay: Antibacterial activity against Escherichia coli 1411 after 18 hrs by broth microdilution method; format: functional, organism-based
[5] = Inhibition of Escherichia coli MurD assessed as blockade of addition of D-[14C]Glu to UDP-MurNAc-L-Ala
Escherichia coli [6] = assay: Inhibition of Escherichia coli MurD assessed as residual activity at 250 uM by malachite green assay

Row | SMILES | IC50 [1] | Activity (Escherichia coli [2]) | MIC (Staphylococcus aureus) | Activity (Escherichia coli [3]) | Activity (Staphylococcus aureus) | Activity (Escherichia coli [4]) | IC50 [5] | Activity (Escherichia coli [6])
1 | Oc1nc(S)nc(SCc2c(Cl)c(Cl)c(Cl)c(Cl)c2Cl)n1 | 63 µM | < 50% | 128 µg/mL (≈ 302 µM) | Active | – | – | – | –
2 | FC(F)(F)c1nc2ccc(SSc3ccc4nc(C(F)(F)F)[nH]c4c3)cc2[nH]1 | – | < 50% | – | inactive | inactive | inactive | – | –
3 | Nc1c(S(=O)(=O)O)cc(Nc2cccc(S(N)(=O)=O)c2)c2c1C(=O)c1ccccc1C2=O | – | < 50% | – | inactive | inactive | inactive | – | –
4 | CCOc1ccc2c(c1)C=C/C(=C/C=C1\C=C(C)c3cccnc3C1=O)N2C | – | < 50% | – | inactive | inactive | inactive | – | –
5 | O=C(O)c1c(Cl)c(Cl)c(Cl)c(Cl)c1C(=O)Nc1ccc2cn[nH]c2c1 | – | < 50% | – | inactive | inactive | inactive | – | –
6 | O=C(O)c1cc2c(cc1S(=O)(=O)O)C1C(C3C2C2(Cl)C(Cl)=C(Cl)C3(Cl)C2(Cl)Cl)C2(Cl)C(Cl)=C(Cl)C1(Cl)C2(Cl)Cl (stereo unspecified) | – | – | – | inactive | inactive | inactive | 34 µM | < 50%
7 | Oc1ccccc1C(Sc1nc2ccccc2s1)Sc1nc2ccccc2s1 | – | < 50% | – | inactive | inactive | inactive | – | –
8 | O=S(=O)(O)c1cc(/N=[N+](\[O-])c2cc(S(=O)(=O)O)c3ccccc3c2)cc2ccccc12 | – | < 50% | – | inactive | inactive | inactive | – | –
9 | O=C1/C(=N/CCc2cc(Br)c(O)c(Br)c2)C=C(O)c2cccnc21 | – | < 50% | – | inactive | inactive | inactive | – | –
10 | CSc1ccc2c(c1)c(CCN)c(C)n2Cc1ccccc1Cl | – | < 50% | – | inactive | inactive | inactive | – | –
11 | O=C(O)/C=C/c1c2ccc(=O)c(O)c-2oc2c(O)c(O)ccc12 | – | – | – | inactive | inactive | inactive | 47 µM | < 50%
12 | O=S(=O)(O)c1ccc2c(/N=N/c3c(O)ccc4ccccc34)cccc2c1 | – | < 50% | – | inactive | inactive | inactive | – | –
13 | CC1C2C=CC1C(c1c3ccc(=O)c(O)c-3oc3c(O)c(O)ccc13)C2C(=O)O (stereo unspecified) | – | – | – | inactive | inactive | inactive | 43 µM | –
14 | CCCCCCCCCCCCN(C)C | – | < 50% | – | inactive | inactive | inactive | – | –
15 | O=C(O)C1C(C(=O)O)C2(Cl)C(Cl)=C(Cl)C1(Cl)C2(Cl)Cl (stereo unspecified) | – | – | – | inactive | inactive | inactive | – | < 50%
16 | Sc1nnc(SCc2ccccc2Cl)c2nc[nH]c12 | – | < 50% | – | inactive | inactive | inactive | – | –
17 | O=C(O)c1c(Br)c(Br)c(Br)c(Br)c1C1c2ccc(O)cc2Oc2cc(O)ccc21 | – | – | – | inactive | inactive | inactive | 10 µM | < 50%
